Data: ChEMBL document CHEMBL1201862, “PubChem BioAssay data set” (2004)
Activity calls are given as the source filed them.

How the values were obtained:
[1] = molecular target: T1, Ubiquitin-conjugating enzyme E2 N (Homo sapiens, UniProt P61088); assay type: functional;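 note: Dose-response confirmation in a TR-FRET assay detecting UBC13-driven polyubiquitin chain formation, inhibition measured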
T1 sequence (P61088 whole entry): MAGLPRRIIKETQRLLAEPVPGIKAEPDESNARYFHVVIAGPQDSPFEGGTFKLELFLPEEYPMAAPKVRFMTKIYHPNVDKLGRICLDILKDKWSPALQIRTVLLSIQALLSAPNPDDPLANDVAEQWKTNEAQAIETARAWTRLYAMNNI

[2] = molecular target: T2, Microphthalmia-associated transcription factor (Homo sapiens, UniProt O75030); assay: TRPM1 promoter luciferase signal decrease, dose response, MITF inhibitor project, cell-based, SK-MEL-5, cherry-picked, set 3 (AID 493073); assay type: functional
T2 sequence (O75030 whole entry): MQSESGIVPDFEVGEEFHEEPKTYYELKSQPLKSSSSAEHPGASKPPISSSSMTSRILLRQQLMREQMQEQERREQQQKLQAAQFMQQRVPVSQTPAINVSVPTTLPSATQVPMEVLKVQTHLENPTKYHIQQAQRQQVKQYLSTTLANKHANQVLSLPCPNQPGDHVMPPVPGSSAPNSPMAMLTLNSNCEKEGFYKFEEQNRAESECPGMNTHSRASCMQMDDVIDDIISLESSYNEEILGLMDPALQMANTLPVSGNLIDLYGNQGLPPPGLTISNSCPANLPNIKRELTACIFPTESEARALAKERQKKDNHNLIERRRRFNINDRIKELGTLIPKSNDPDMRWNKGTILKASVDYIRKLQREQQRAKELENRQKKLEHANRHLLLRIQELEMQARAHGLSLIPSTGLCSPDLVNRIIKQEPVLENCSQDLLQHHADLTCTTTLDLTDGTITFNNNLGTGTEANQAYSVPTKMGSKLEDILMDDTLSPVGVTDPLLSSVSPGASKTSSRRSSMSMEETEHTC

[3] = molecular target: T3, Leucine aminopeptidase (Plasmodium falciparum 3D7, UniProt Q8IL11); assay: P. falciparum M17LAP inhibitors, primary screen, biochemical, fluorogenic H-Leu-NHMec substrate, 1536-well (AID 1619); assay type: functional
T3 sequence (Q8IL11 whole entry): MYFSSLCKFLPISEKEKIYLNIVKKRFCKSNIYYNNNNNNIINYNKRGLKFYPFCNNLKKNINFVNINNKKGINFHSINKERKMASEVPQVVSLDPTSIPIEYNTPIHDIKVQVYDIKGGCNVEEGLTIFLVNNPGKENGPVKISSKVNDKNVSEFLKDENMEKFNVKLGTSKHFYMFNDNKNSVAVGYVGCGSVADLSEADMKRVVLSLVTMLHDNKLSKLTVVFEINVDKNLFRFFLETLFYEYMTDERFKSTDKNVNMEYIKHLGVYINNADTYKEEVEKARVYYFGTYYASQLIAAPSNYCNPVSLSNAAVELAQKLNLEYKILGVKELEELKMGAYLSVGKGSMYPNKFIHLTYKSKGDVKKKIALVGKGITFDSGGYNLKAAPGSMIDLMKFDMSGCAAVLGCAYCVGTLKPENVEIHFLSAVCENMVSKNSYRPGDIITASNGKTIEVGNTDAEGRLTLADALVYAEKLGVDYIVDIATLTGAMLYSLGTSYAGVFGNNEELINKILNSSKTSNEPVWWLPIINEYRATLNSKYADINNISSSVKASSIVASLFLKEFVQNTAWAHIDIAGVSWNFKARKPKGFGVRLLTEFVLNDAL

[4] = molecular target: Cytochrome P450 2C9 (Homo sapiens, UniProt P11712)
[5] = tested on: H4; assay: Luminescence Cell-Based Dose Response HTS to Identify Activators of 5'UTR Stem-Loop Driven Prion Protein mRNA Translation in H4 Neuroglioblastoma Cells. [Related pubchem assays: 1829 (Project Summary), 1814 (Primary HTS)]; assay type: functional; conditions: Homo sapiens
[6] = Luminescence Cell-Based Dose Confirmation HTS to Identify Activators of 5'UTR Stem-Loop Driven Alpha-Synuclein mRNA Translation in H4 Neuroglioblastoma Cells. [Related pubchem assays: 1829 (Project Summary), 1814 (Primary HTS)]; assay type: functional
[7] = molecular target: T4, Cytochrome P450 1A2 (Homo sapiens, UniProt P05177);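 note: PubChem cytochrome P450 panel assay, CYP1A2 panel member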
T4 sequence (P05177 whole entry): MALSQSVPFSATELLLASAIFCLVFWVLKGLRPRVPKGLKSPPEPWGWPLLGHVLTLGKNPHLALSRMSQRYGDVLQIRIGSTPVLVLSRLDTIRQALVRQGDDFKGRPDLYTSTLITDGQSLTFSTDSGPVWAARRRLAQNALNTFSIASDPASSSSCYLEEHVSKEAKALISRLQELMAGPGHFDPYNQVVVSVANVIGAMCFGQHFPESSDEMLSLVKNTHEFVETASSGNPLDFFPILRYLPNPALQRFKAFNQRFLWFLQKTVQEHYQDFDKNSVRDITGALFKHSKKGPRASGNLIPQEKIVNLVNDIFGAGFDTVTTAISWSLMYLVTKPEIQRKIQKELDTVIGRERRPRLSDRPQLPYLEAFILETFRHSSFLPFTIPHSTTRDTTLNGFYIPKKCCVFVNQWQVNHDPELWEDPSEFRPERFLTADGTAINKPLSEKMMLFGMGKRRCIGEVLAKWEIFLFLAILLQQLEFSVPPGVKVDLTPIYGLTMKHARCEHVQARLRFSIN

[8] = Luminescence Cell-Based Dose Response HTS to Identify Activators of Luciferase Translation or Activity in H4 […] Cells. [Related pubchem assays: 1829 (Project Summary), 1814 (Primary HTS)]; assay type: functional
[9] = molecular target: Disintegrin and metalloproteinase domain-containing protein 17 (Homo sapiens, UniProt P78536); assay: ADAM17 protease inhibitors, dose response, counter-screen for ADAM10 exosite inhibitor project, biochemical, quenched FRET substrate (AID 743253)
[10] = molecular target: T5, Streptokinase A (Streptococcus pyogenes serotype M1, UniProt P10520); assay: S. pyogenes streptokinase expression inhibitors, potency, dose response, plasminogen activation absorbance, OD405 (AID 1914); assay type: functional, Streptococcus pyogenes M1 GAS;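 note: secreted streptokinase activity via plasminogen activation per viability signal from cell pellet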
T5 sequence (P10520 whole entry): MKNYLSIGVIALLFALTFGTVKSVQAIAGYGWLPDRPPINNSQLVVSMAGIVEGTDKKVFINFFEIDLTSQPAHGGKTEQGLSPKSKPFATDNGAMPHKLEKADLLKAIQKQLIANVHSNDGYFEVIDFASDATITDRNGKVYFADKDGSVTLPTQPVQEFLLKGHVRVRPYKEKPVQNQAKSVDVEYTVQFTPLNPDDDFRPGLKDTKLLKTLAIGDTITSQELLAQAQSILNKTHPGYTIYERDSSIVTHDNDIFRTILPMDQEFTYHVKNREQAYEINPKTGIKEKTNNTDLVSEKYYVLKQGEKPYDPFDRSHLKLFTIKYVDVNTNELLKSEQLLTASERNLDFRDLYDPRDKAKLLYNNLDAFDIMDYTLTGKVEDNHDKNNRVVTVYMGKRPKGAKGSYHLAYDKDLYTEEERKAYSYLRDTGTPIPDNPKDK

[11] = cells; assay type: functional
[12] = control 3'UTR Renilla luciferase suppression, dose response, counter-screen for Shn3 inhibitor project, cell-based, Clone20-Shn3RL, cherry-picked (AID 624133); assay type: functional
[13] = HepG2 cell cytotoxicity, dose response, cytotoxicity control for Shn3 inhibitor project, CellTiter-Glo, cherry-picked (AID 624134); assay type: functional, cell-based
[14] = Shn3 3'UTR reporter inhibitors, dose response, cell-based, Clone20 osteoblasts, firefly luciferase, cherry-picked (AID 624132); assay type: functional;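 note: firefly luciferase luminescence from reporter carrying the Shn3 3'UTR in osteoblasts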
[15] = tested on: INS1; assay: beta cell apoptosis inhibitors, cytokine rescue, dose response, luminescence, retest (AID 449756); assay type: functional, cell-based; conditions: Rattus norvegicus;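 note: cell death triggered by IL-1 beta plus TNF-alpha plus IFN-gamma mixture; protective hits raise ATP signal compared with cytokine alone wells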
[16] = molecular target: Paired box protein Pax-8 (Homo sapiens, UniProt Q06710); assay: inhibitors of PAX8-driven TPO luciferase reporter, dose response, RMG-I cells, cherry-pick (AID 687027); assay type: functional, cell-based;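 note: luciferase reporter driven by Pax8 target thyroperoxidase promoter measured by SteadyGlo luminescence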
[17] = cytotoxicity in OVCAR8 ovarian cancer cells, dose response, PAX8 project, cell-based, plate reader, dry powder samples (AID 743197); assay type: functional; conditions: OVCAR-8
[18] = molecular target: T6, Corticotropin-releasing factor receptor 2/Corticotropin-releasing factor-binding protein (Homo sapiens, UniProt P24387+Q13324); assay: activators of CRF receptor 2 with binding protein – uHTS hits, confirmation (AID 602473); assay type: functional; conditions: read-out: EC50_Mean
T6 sequence (Q13324 whole entry): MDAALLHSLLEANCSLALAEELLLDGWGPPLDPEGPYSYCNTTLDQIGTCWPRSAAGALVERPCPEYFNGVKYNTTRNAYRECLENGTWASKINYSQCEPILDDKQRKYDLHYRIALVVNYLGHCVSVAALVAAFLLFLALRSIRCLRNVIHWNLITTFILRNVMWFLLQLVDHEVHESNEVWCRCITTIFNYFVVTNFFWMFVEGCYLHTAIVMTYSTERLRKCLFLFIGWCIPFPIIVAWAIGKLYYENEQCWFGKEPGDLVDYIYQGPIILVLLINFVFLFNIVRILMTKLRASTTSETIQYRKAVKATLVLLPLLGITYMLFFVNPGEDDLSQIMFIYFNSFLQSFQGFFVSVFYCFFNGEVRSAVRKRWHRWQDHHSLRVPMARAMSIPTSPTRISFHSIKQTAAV
T6 sequence (P24387 whole entry): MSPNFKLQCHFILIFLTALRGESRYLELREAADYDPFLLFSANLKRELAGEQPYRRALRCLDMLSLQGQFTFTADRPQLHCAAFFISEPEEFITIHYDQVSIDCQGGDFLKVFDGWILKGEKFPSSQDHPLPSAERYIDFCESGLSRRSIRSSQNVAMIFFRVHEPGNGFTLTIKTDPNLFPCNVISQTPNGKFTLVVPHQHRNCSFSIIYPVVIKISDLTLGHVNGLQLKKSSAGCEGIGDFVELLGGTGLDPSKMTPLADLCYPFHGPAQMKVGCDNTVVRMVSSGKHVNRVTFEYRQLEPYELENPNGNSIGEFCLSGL

[19] = tested on: Streptococcus; assay: Group A Streptococcus viability loss, dose response, counter-screen for streptokinase expression inhibitor project, luminescence, BacTiterGlo (AID 1915); assay type: functional, organism-based;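 note: potency for reduction of bacterial viability or growth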
[20] = tested on: Streptococcus sp. 'group A'; assay: growth inhibition of control SK(-) GAS strain, dose response, counter-screen for streptokinase expression inhibitor project, luminescence, kanamycin, BacTiterGlo, confirmation (AID 1900); assay type: functional, organism-based
[21] = growth suppression of beta-catenin-knockout colon cells, dose response, cell-based, HCT116, human colon tumor (AID 1045); assay type: functional;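 note: HCT116 colon tumor cells with beta catenin knocked out; cells exposed to compound for 60 hours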
[22] = growth suppression of PTEN-null colon cells, dose response, cell-based, HCT116 PTEN knockout (AID 1047); assay type: functional;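 note: HCT116 colon tumor cells with PTEN knocked out; cells exposed to compound for 60 hours before readout; potency for loss of cell viability measured by luminescence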

Chain of Disintegrin and metalloproteinase domain-containing protein 17 (P78536 whole entry, the tested form may be a part): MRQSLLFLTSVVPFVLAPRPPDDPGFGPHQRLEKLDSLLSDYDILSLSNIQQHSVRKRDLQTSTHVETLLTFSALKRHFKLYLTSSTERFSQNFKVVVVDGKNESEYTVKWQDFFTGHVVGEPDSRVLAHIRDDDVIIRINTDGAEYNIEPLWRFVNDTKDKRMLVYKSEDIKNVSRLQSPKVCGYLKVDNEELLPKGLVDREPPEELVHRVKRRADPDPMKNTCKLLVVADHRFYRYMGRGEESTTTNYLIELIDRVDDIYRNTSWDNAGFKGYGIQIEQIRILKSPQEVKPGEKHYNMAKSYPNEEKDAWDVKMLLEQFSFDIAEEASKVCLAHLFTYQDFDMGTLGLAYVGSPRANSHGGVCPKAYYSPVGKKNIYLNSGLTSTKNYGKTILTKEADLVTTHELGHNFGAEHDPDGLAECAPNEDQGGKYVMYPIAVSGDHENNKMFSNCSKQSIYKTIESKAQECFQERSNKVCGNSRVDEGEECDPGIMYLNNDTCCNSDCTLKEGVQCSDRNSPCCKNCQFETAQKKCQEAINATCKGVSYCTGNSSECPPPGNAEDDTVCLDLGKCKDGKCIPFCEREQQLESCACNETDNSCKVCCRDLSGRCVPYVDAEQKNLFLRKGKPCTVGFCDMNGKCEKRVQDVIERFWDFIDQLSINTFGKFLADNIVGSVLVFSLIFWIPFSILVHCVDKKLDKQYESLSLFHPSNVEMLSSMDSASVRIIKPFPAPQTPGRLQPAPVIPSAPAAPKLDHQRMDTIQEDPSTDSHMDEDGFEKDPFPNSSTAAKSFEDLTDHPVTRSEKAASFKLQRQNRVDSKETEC
Chain of Cytochrome P450 2C9 (P11712 whole entry): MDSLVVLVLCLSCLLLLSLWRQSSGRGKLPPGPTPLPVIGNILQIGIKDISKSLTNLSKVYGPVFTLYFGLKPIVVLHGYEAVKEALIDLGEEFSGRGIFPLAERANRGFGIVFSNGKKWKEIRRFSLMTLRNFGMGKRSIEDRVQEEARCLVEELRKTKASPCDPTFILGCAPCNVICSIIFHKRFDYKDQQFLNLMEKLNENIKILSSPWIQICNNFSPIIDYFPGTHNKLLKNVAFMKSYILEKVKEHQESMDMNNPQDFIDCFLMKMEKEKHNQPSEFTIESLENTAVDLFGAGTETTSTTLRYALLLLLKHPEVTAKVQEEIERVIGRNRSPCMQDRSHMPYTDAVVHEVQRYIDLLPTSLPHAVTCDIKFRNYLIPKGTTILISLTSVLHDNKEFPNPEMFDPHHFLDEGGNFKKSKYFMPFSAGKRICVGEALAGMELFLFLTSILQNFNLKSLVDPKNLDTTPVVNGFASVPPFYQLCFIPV
Chain of Paired box protein Pax-8 (Q06710 whole entry): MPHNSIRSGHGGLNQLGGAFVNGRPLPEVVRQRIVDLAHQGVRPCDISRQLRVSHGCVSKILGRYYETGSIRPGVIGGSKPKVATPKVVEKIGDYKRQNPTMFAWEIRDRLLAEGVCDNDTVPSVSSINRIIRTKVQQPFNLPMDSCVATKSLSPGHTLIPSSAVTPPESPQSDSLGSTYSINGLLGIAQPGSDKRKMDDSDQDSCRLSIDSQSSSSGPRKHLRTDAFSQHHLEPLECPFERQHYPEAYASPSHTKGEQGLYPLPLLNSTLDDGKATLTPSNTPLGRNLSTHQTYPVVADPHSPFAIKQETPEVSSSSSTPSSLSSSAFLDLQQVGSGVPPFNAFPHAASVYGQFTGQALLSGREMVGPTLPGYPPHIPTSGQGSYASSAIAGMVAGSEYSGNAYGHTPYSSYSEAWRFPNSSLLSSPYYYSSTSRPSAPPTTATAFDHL

## CCN(CC)CCNC(=O)c1c(C)n(-c2ccccc2)c2cc(Br)c(OC)cc12
[1]
  IC50: > 20 µM (inactive)
[2]
  AC50: 12.9 µM (active)

## O=C(CN1C(=O)C2C3C=CC(C3)C2C1=O)Nc1ccc2c(c1)OCCO2 (centres undefined)
[3]
  IC50: 21 µM (active)
[4]
  AC50: 316 nM (inconclusive)
[5]
  EC50: 19 µM (active)
[6]
  EC50: 15.1 µM (active)
[7]
  AC50: 15.8 µM (inconclusive)
[8]
  EC50: 22.4 µM (active)

## CC(=O)c1ccc(N2CCC(c3cc(-c4ccc(Cl)cc4Cl)n[nH]3)CC2)c([N+](=O)[O-])c1
[9]
  IC50: > 69.5 µM (inactive)
[10]
  EC50: > 150 µM (not active)
[7]
  AC50: 14.1 µM (inconclusive)

## CC(/C=C/c1ccccc1)=N\NC(=O)c1ccc2c(c1)OCCO2
[11]
  IC50: 25.7 µM (active)

## O=C(NCC(=O)N1CCCC1C(=O)O)OC1CCCCC1 (centres undefined)
[3]
  IC50: 39 µM (active)

## CC(O)(c1ccncc1)c1nc(-c2cccc(C(F)(F)F)c2)cs1 (centres undefined)
[12]
  AC50: 12.5 µM (active)
[13]
  AC50: > 70 µM (inactive)
[14]
  AC50: 5.34 µM (active)

## O=C(c1cn[nH]c1)c1cc(F)ccc1O
[3]
  IC50: 20.9 µM (active)

## CN(C)C1=NC[C@H](Cc2ccccc2)N1CCCC1CCCCC1
[12]
  AC50: 4.98 µM (active)
[13]
  AC50: 20.3 µM (active)
[14]
  AC50: 1.47 µM (active)
[15]
  AC50: 7.42 µM (active)

## COc1cc(OC)c2c(OC)cccc2n1
[11]
  IC50: 30.1 µM (active)

## Cc1ccc(S(=O)(=O)Nc2ccc3c(c2)C(=O)N([C@H](C)CO)C[C@@H](C)[C@H](CN(C)S(=O)(=O)c2ccc(Cl)cc2)OCCCC[C@H](C)O3)cc1
[16]
  AC50: 8.13 µM (active)
[17]
  AC50: > 70 µM (inactive)

## Cc1cccc(C(=O)NC(=S)NNC(=O)COc2c(C)cccc2C)c1
[3]
  IC50: 59.1 µM (active)
[18]
  EC50: 1.65 µM (active)

## CCOc1ccc(NC(=O)CSc2nnc[nH]2)c([N+](=O)[O-])c1
[3]
  IC50: 5.46 µM (active)

## CCCOC(=O)c1ccc(NC(=O)c2ccc(Br)o2)cc1
[11]
  IC50: 30.5 µM (active)

## O=C(Nc1ccc(N2CCCC2)c(S(=O)(=O)Nc2cccc(C(F)(F)F)c2)c1)c1cccs1
[19]
  EC50: 10.5 µM (active)
[20]
  EC50: 3.38 µM (active)
[9]
  IC50: > 69.5 µM (inactive)
[10]
  EC50: > 150 µM (not active)

## C#CCn1/c(=N/C(=O)c2ccc(S(=O)(=O)N3CCc4ccccc4C3)cc2)sc2cc(S(N)(=O)=O)ccc21
[12]
  AC50: 23.9 µM (active)
[21]
  EC50: 1.31 µM (active)
[13]
  AC50: 37.3 µM (active)
[14]
  AC50: 1.29 µM (active)
[22]
  EC50: 1.62 µM (active)
[15]
  AC50: 2.68 µM (active)

## CC1CCN(CC2C(=O)O[C@@H]3C[C@@]4(C)CCC[C@H](C)C4=C[C@H]23)CC(C)(C)C1 (some centres undefined)
[2]
  AC50: 16.1 µM (active)
